For data set [1], the target named is T1, human VPAC2 (Homo sapiens, UniProt P41587).
T1 construct: expressed in transfected cells
T1 sequence (P41587 24-438): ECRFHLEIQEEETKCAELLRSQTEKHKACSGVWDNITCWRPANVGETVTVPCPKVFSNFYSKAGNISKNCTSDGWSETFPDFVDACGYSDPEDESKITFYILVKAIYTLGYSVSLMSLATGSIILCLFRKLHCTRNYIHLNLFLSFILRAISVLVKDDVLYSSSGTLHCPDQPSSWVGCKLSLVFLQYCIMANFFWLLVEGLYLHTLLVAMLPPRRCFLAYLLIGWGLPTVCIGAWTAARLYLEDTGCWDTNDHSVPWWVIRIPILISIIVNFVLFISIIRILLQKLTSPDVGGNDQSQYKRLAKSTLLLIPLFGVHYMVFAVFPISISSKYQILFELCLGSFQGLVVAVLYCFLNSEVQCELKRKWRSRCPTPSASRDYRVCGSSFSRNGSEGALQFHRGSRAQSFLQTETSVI
The data set is described as follows: Filter binding assay, membranes of stable VPAC2 cell line, 125I-labeled VIP tracer (Table 2). The conditions noted are these: read-out: Human VPAC2 Receptor Binding. An outline of the steps:
(§1)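 Membranes 2.5 μg/well; tracer ~40000 cpm; buffer 25 mM HEPES pH 7.4, 0.5% protease-free BSA; 1 h incubation, shaking. Glass-fibre filtration (0.5% polyethyleneamine presoak, 0.2% BSA block), 3× HEPES wash, dry 1 h at 60° C, scintillation count.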

Another data set has as its target T2, human VPAC1 (Homo sapiens, UniProt P32241).
T2 sequence (P32241 31-457): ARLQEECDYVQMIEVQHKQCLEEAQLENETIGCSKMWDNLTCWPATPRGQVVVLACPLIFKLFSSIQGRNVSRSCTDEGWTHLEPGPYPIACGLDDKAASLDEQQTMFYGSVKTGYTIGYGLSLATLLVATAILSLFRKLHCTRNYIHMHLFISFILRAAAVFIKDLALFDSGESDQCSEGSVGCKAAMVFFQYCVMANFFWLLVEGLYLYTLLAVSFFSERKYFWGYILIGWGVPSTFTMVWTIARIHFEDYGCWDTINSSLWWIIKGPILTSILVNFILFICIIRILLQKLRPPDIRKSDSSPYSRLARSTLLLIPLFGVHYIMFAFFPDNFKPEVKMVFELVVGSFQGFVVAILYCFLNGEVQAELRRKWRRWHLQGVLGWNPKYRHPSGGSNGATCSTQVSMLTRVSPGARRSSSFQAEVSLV
The data set is described as follows: Filter binding assay, membranes of cells transiently transfected with human VPAC1, 125I-labeled VIP tracer (Table 2). On the set-up: expressed in transfected cells. The conditions noted are these: read-out: Human VPAC1 Receptor Binding. In outline: as §1

The nature of data set [2]: Rat serum stability studies (remaining active peptide by DiscoveRx cAMP on CHO-VPAC2 cells). The data set is classed as in vitro ADME. In outline: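 EC50 from a DiscoveRx cAMP read-out on CHO-VPAC2 cells indexes how much peptide stays active after 18 h in rat serum at 37° C without aprotinin, against an aprotinin-protected 4° C aliquot.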
For data set [3], the target named is T1, human VPAC2. Briefly: Alpha screen cAMP in vitro potency, human VPAC2 receptor. In kind it is cell-based. Particulars: cAMP generation; single result from two analyses performed in a single run; read-out: Human VPAC2 Receptor: Alpha Screen EC50. In outline: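 Under reduced light, acceptor beads accompany the stimuli during a 60-minute incubation of cells in stimulation buffer (50,000 per well point). Donor beads go in with lysis buffer for a further 60–120 minutes, and the resulting AlphaScreen signal indicates cAMP levels.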

Where a SMILES comes first, the peptide text is derived from it. Where no end group is shown, it is not given here. [ ]: non-standard residue; d: D form. The star is where a group is joined. hArg = N=C(N)NCCCC[C@H](N)C(=O)O; Cit = NC(=O)NCCC[C@H](N)C(=O)O; Hexanoyl = CCCCCC(=O)*; Aib = CC(C)(N)C(=O)O

One may read the EC50 as the midpoint of the concentration-response curve. On to `CCCCCC(=O)N[C@@H](Cc1c[nH]cn1)C(=O)N[C@@H](CO)C(=O)N[C@@H](CC(=O)O)C(=O)N[C@@H](C)C(=O)N[C@H](C(=O)N[C@@H](Cc1ccccc1)C(=O)N[C@H](C(=O)N[C@@H](CC(=O)O)C(=O)N[C@@H](CC(N)=O)C(=O)N[C@@H](Cc1ccc(O)cc1)C(=O)N[C@H](C(=O)N[C@@H](CCCNC(=N)N)C(=O)N[C@@H](CC(C)C)C(=O)N[C@@H](CCCNC(=N)N)C(=O)N[C@@H](CCCCN)C(=O)N[C@@H](CCC(N)=O)C(=O)N[C@H](C(=O)N[C@@H](C)C(=O)N[C@@H](C)C(=O)N[C@@H](CCCCN)C(=O)N[C@@H](CCCNC(=N)N)C(=O)N[C@@H](Cc1ccc(O)cc1)C(=O)N[C@@H](CC(C)C)C(=O)N[C@@H](CCC(N)=O)C(=O)N[C@@H](CO)C(=O)N[C@H](C(=O)N[C@@H](CCCNC(=N)N)C(=O)N[C@@H](CC(N)=O)C(=O)NCC(=O)NCC(=O)N1CCC[C@H]1C(=O)N[C@@H](CO)C(=O)N[C@@H](CO)C(=O)NCC(=O)N[C@@H](C)C(=O)N1CCC[C@H]1C(=O)N1CCC[C@H]1C(=O)N1CCC[C@H]1C(=O)N[C@@H](CO)C(=O)O)[C@@H](C)CC)C(C)C)[C@@H](C)O)[C@@H](C)O)C(C)C` [Agonist P213] (Hexanoyl-HSDAVFTDNYTRLRKQVAAKRYLQSIRNGGPSSGAPPPS-OH; C-terminus assumed), for which the IC50 at human VPAC2 [1] turned out to be 0.27 nM; at human VPAC1, 32.2 nM. Also, the “Rat Serum Stability (estimated purity in % after 18 hours)” value in data set [2] is 0.04%. For the same compound, at human VPAC2 [3], the EC50 amounted to 0.24 nM.
Regarding `CCCCCC(=O)N[C@@H](Cc1c[nH]cn1)C(=O)N[C@@H](CO)C(=O)N[C@@H](CC(=O)O)C(=O)N[C@@H](C)C(=O)N[C@H](C(=O)N[C@@H](Cc1ccccc1)C(=O)N[C@H](C(=O)N[C@@H](CC(=O)O)C(=O)N[C@@H](CC(N)=O)C(=O)N[C@@H](Cc1ccc(O)cc1)C(=O)N[C@H](C(=O)N[C@@H](CCCNC(=N)N)C(=O)N[C@@H](CC(C)C)C(=O)N[C@@H](CCCNC(=N)N)C(=O)N[C@@H](CCCCN)C(=O)N[C@@H](CCC(N)=O)C(=O)N[C@H](C(=O)N[C@@H](C)C(=O)N[C@@H](C)C(=O)N[C@@H](CCCNC(=N)N)C(=O)N[C@@H](CCCNC(=N)N)C(=O)N[C@@H](Cc1ccc(O)cc1)C(=O)N[C@@H](CC(C)C)C(=O)N[C@@H](CCC(N)=O)C(=O)N[C@@H](CO)C(=O)N[C@H](C(=O)N[C@@H](CCCNC(=N)N)C(=O)N[C@@H](CC(N)=O)C(=O)NCC(=O)NCC(=O)N1CCC[C@H]1C(=O)N[C@@H](CO)C(=O)N[C@@H](CO)C(=O)NCC(=O)N[C@@H](C)C(=O)N1CCC[C@H]1C(=O)N1CCC[C@H]1C(=O)N1CCC[C@H]1C(=O)N[C@@H](CO)C(=O)O)[C@@H](C)CC)C(C)C)[C@@H](C)O)[C@@H](C)O)C(C)C` [Agonist P214] (Hexanoyl-HSDAVFTDNYTRLRKQVAARRYLQSIRNGGPSSGAPPPS-OH; C-terminus assumed), the IC50 at human VPAC2 [1] came out at 0.19 nM; at human VPAC1, 14.5 nM. Moreover, the “Rat Serum Stability (estimated purity in % after 18 hours)” value in data set [2] is on record as 0.07%. Moreover, the EC50 on human VPAC2 [3] is 0.16 nM.
Take “Hexanoyl-HSDAVFTANYTRLRKQVAAKKYLQSIKNKRYGGPSSGAPPPS [Agonist P158]”: the IC50 on human VPAC2 [1] came to 0.21 nM; on human VPAC1, 25.7 nM. For the same compound, the “Rat Serum Stability (estimated purity in % after 18 hours)” value in data set [2] was 0.32%. Moreover, on human VPAC2 [3], the EC50 worked out at 0.11 nM.
Turning to “Hexanoyl-HSDAVFTDNYTRLLAKLAAQKYLQSIKNKRYGGPSSGAPPPS [Agonist P197]”, the IC50 came out at 0.31 nM at human VPAC2 [1] and 447 nM on human VPAC1. Besides, the “Rat Serum Stability (estimated purity in % after 18 hours)” value in data set [2] is on record as 5.68%. Also, on human VPAC2 [3], the EC50 amounted to 0.09 nM.
In the same order, the values of “Hexanoyl-HSDAVFTDNYTRLRKQVAAKLYLQSIKNKRYGGPSSGAPPPS [Agonist P185]” are 0.41 nM, 358 nM, 0.27% and 0.18 nM.
Turning to “Hexanoyl-HSDAVFTDNYTRLRLQVAAKKYLQSIKNKRYGGPSSGAPPPS [Agonist P179]”, the IC50 at human VPAC2 [1] was determined as 0.42 nM; at human VPAC1, 390 nM. Also, the “Rat Serum Stability (estimated purity in % after 18 hours)” value in data set [2] is on record as 1.66%. Moreover, on human VPAC2 [3], the EC50 stood at 0.24 nM.
Take “Hexanoyl-HSDAVFTDNYTRLR[Aib]QAAA[Aib]KYLQSIKNKRYGGPSSGAPPPS [Agonist P324]”: the values for the IC50 on human VPAC2 [1] and on human VPAC1 were 0.43 nM and greater than 3000 nM, respectively. For the same compound, in data set [2], the “Rat Serum Stability (estimated purity in % after 18 hours)” value was 13.64%. The concentration for a half-maximal effect (EC50) at human VPAC2 [3] is 0.23 nM.
As to “Hexanoyl-HSDAVFTDNYTRLR[Aib]QVAA[Aib]AYLQSIKNKRYGGPSSGAPPPS [Agonist P341]”, the IC50 at human VPAC2 [1] was 2.39 nM; at human VPAC1, greater than 3000 nM. Besides, in data set [2], the “Rat Serum Stability (estimated purity in % after 18 hours)” value was 12.82%. In addition, the EC50 on human VPAC2 [3] worked out at 0.38 nM.
As to “Hexanoyl-HSDAVFTDNYTRL[Cit][Aib]QVAA[Aib]KYLQSIKNKRYGGPSSGAPPPS [Agonist P320]”, the IC50 on human VPAC2 [1] was 1.2 nM; at human VPAC1 it was greater than 3000 nM. Besides, the “Rat Serum Stability (estimated purity in % after 18 hours)” value in data set [2] was 28.59%. The EC50 on human VPAC2 [3] came out at 0.49 nM.
Take “Hexanoyl-HSDAVFTDNYTRL[hArg][Aib]QVAA[Aib]KYLQSIKNKRYGGPSSGAPPPS [Agonist P316]”: the IC50 at human VPAC2 [1] is 0.38 nM; on human VPAC1 it was greater than 3000 nM. The “Rat Serum Stability (estimated purity in % after 18 hours)” value in data set [2] is 15.06%. Besides, at human VPAC2 [3], the EC50 amounted to 0.3 nM.
As to “Hexanoyl-HSDAVFTENYTRLRKQVAAKKYLQSIKNKRYGGPSSGAPPPS [Agonist P159]”, the IC50 on human VPAC2 [1] is 0.17 nM; on human VPAC1, 131 nM. The “Rat Serum Stability (estimated purity in % after 18 hours)” value in data set [2] is on record as 0.15%. Moreover, the EC50 at human VPAC2 [3] was 0.17 nM.
For the compound “Hexanoyl-HSDA[Aib]FTDNYTRLRKQVAAKKYLQSIKNKRYGGPSSGAPPPS [Agonist P212]”, the values for the IC50 on human VPAC2 [1] and at human VPAC1 were 0.19 nM and 198 nM, respectively. In addition, in data set [2], the “Rat Serum Stability (estimated purity in % after 18 hours)” value is 0.21%. The EC50 on human VPAC2 [3] amounted to 0.12 nM.
With “Hexanoyl-HSD[dA]VFTDNYTRLRKQVAAKKYLQSIKNKRYGGPSSGAPPPS [Agonist P207]”, the IC50 worked out at 0.81 nM at human VPAC2 [1] and 282 nM at human VPAC1. In addition, the “Rat Serum Stability (estimated purity in % after 18 hours)” value in data set [2] is given as less than 0.29%. In addition, the EC50 at human VPAC2 [3] is 0.86 nM.

The values above are taken from patent US20080026996A1, “Selective Vpac2 Receptor Reptide Agonists” (ELI LILLY AND COMPANY, priority 2004, published 2008).
